# Source: patent US20170071944A1, “MODULATORS OF TOLL-LIKE RECEPTORS FOR THE TREATMENT OF HIV” (Gilead Sciences, Inc., priority 2015, published 2017)
# Test system: HIV-infected CD4 T cells
# Assay: PGT121 antibody-mediated killing of HIV-infected CD4 T cells, PBMC effector model
# Assay type: cell-based, human
# Excerpt: NK cells and monocytes mediate antibody-dependent cellular cytotoxicity (ADCC) and antibody-dependent cellular phagocytosis (ADCP) respectively. To assess the ability of the compound of Example 15 to enhance ADCC and ADCP, two models were developed using monocytes or PBMCs as effector cells and HIV-infected CD4 T cells as target cells. PBMCs were isolated from 3 healthy subjects' leukaphereses (AllCells, participant IDs A4593, A4596, A4606), as described above. CD4 T cells were isolated from PBMCs using negative selection magnetic beads (EasySep, StemCell Technologies). CD4 T cells were spinfected with HIV-1 isolate 92HT593 (NIH AIDS Reagent Program) and cultured for 5 days at 37° C. For the PBMC model, autologous PBMCs were cultured for 5 days with vehicle control (DMSO) or Example 15 at 100 or 1000 nM. […] Marker staining was measured by flow cytometry using a LSR Fortessa (BD Biosciences) and analyzed with FlowJo software (TreeStar). The percent killing was determined by calculating the reduction of p24+ CD4+ T cells mediated by PGT121 antibody relative to a no antibody control.
# PBMCs (FIG. 3) or monocytes (FIG. 4) were treated with DMSO or TLR8 agonist for 5 days (FIG. 3) or 1 day (FIG. 4) and then co-cultured for 1 day with autologous HIV-infected CD4 T cells−/+anti-HIV Env antibody PGT121. Reductions in % p24+ CD4+ T cells, relative to no antibody control, were measured by FACS. […]
structure (smiles),measurement,setting,value
CCCC[C@H](CO)Nc1nc(N)nc2cccnc12 [Example 15],"PGT121-mediated killing of HIV-infected CD4+ T cells, geometric mean area under the curve (AUC)","PBMCs from 3 subjects pre-treated 5 days at 100 nM, 108 for the DMSO control",172
same,Increase of AUC of PGT121-mediated killing compared to DMSO control,"PBMCs from 3 subjects, 100 nM",60%
